This data set in a line: physchem. The source says:
At pH 4 and 5, 0.1 M citrate buffers were used, while for pH 6, 7 and 8 a set of 0.1M phosphate buffers were used. Each buffer also contained 0.2 M NaCl. No cosolvents or other potentially solubilizing components were included. Buffer preparations were subdivided in order to individually test the solubility of only one material in a given buffer sample.

SMILES strings stand for the structures.

Consider `CCCCCCCCCCCCC(C)(C)C(=O)OC[N+]1(C)CCN(C2=Nc3ccccc3Nc3sc(C)cc32)CC1.[I-]` [Compound 18, 1-(((2,2-dimethyltetradecanoyl)oxy)methyl)-1-methyl-4-(2-methyl-10H-benzo[b]thieno[2,3-e][1,4]diazepin-4-yl)piperazin-1-ium iodide], for which the “variation in solubility across the pH range studied” value is on record as “less than 2 fold”. Where the note is “pH 4, aqueous buffer, thermodynamic from solid”, the solubility (as a rule, the concentration that dissolves in the medium under given conditions) is 0.1 to 0.2 ng/mL.

The values are drawn from patent publication US20110166128A1, “Diaryldiazepine Prodrugs for the Treatment of Neurological and Psychological Disorders” (priority 2010, published 2011).
